Test results published in patent US20070042037A1, “Pharmaceutical composition containing levodopa and carbidopa” (priority 2003, published 2007).

How the values were obtained:
[1] = Dissolution test, continuous-flow dissolution chamber, in vitro release; type: physicochemical; conditions: pH 1.1 artificial gastric juice, 25 ml/min, 37° C., mean of 6 measurements
Protocol: Six samples of a 250 mg preparation (50+200) were tested using a solution at pH 1.1 (artificial gastric juice) in a continuous-flow dissolution chamber (25 ml/min, 37° C.). The following percentages of release during the 24 hours were obtained (each value is the mean of 6 measurements): […]

[2] = in vivo; cited from earlier work
[3] = 3rd hour, 250 mg preparation (50 mg carbidopa+200 mg levodopa, ethylcellulose-coated granules)
[4] = 6th hour, 250 mg preparation (50+200)
[5] = 9th hour, 250 mg preparation (50+200)
[6] = 12th hour, 250 mg preparation (50+200)
[7] = 24th hour, 250 mg preparation (50+200)

Structure (SMILES) | In vitro release, % released average [1, 3] [%] | In vitro release, % released average [1, 4] [%] | In vitro release, % released average [1, 5] [%] | In vitro release, % released average [1, 6] [%] | In vitro release, % released average [1, 7] [%] | Time to attain the maximum plasmatic concentration [2] [h]
C[C@@](Cc1ccc(O)c(O)c1)(NN)C(=O)O [Carbidopa, carbidopa] | 26 | 39 | 51 | 63 | 89 | 
N[C@@H](Cc1ccc(O)c(O)c1)C(=O)O [Levodopa, levodopa] | 22 | 43 | 59 | 68 | 90 | 1 to 2
